Results taken from patent US5516775A, “Further use of pyrimidine derivatives” (Ciba-Geigy Corporation, priority 1992, dated 1996).
pIC50: −log10 of the molar value.

Columns and labels:
[1] = system: Human T24 bladder carcinoma cells; test: Inhibition of the growth of human T24 bladder carcinoma cells; type: cell-based; conditions: 120 h, 5 days incubation, methylene blue staining, OD 665 nm
Method: In this assay, the inhibitory action of compounds of formula I on the growth of human T24 bladder carcinoma cells is determined. The IC50 values obtained for the compounds of formula I are from c. 1 to 10 μmol/liter.
Human T24 bladder carcinoma cells are incubated in "Eagle's minimal essential medium", to which 5% (v/v) foetal calf serum has been added, in a humidified incubator at 37° C. and 5 percent by volume CO2 in air. The carcinoma cells (1000-1500) are inoculated in 96-well microtitre plates and incubated overnight under the stated conditions. The test compound is added in serial dilutions on day 1. The plates are incubated for 5 days under the stated conditions. During this time the control cultures undergo at least 4 cell divisions. After incubation, the cells are fixed with a 3.3% (g/v) aqueous solution of glutaraldehyde, washed with water and stained with a 0.05% (weight/volume) aqueous solution of methylene blue. After washing, the stain is eluted with 3% (g/v) aqueous hydrochloric acid. Afterwards, the optical density (OD) per well, which is directly proportional to the number of cells, is measured with a photometer (Titertek multiskan) at 665 nm. The IC50 values are computed by a computer system, using the formula [formula] The IC50 values are defined as that active compound concentration at which the number of cells per well at the end of the incubation period is only 50% of the number of cells in the control cultures. The following IC50 values are obtained in this assay for the compounds of formula I: […]

[2] = molecular target: Protein kinase C from pig brain; test: Determination of the inhibitory action on protein kinase C; type: biochemical; conditions: method of Fabbro et al., read-out: IC50, inhibition of protein kinase C
Method: Protein kinase C from pig brain is used to determine the inhibitory action on protein kinase C. The inhibitory action of the compounds of formula I on protein kinase C is determined by the method of D. Fabbro et al, as described in Example 2. […] 0.1 to 30 μmol/liter.
Protein kinase C from pig brain purified in accordance with the procedure described by T. Uchida and C. R. Filbum in J. Biol. Chem. 259, 12311-4 (1984) is used to determine the inhibitory action on protein kinase C. The inhibitory action of the compounds of formula I on protein kinase C is determined by the method of D. Fabro et al., Arch. Biochem. Biophys. 239, 102-111 (1985). The following IC50 values are obtained in this assay for the compounds of formula I: […]

[3] = system: human T24 bladder carcinoma; test: Antitumour activity in mice (T24 bladder carcinoma transplant); type: in vivo, female Balb/c nude mice; conditions: once daily for 15 days, measured 24 hours after last administration
Method: In the assay described in Example 3, the compounds of formula I, when administered perorally or intraperitoneally, reduce tumour volume to about 35-70% of tumour volume in control animals treated with placebo.
On day 0 a c. 25 mg piece of human T24 bladder carcinoma is transplanted subcutaneously using Trokar under operable "forene" narcosis on female Balb/c nude mice (Balb/c(Balb/c nu/nu, Bomholdgaard, Denmark; six mice per group). On day 6 after the tumour transplantation the average tumour volume is 120-140 mm^3 and treatment is commenced. The treatment consists in administering perorally or intraperitoneally once daily over 15 successive days, i.e. altogether 15 times, 25 ml/kg of the following formulation. This formulation is prepared as follows: 16 mg of a compound of formula I are dissolved in 0.4 ml of dimethyl sulfoxide (100% ). Then 0.05 ml of Tween 80 is added to this solution and the batch is mixed. Then 7.6 ml of a 0.9% aqueous solution of sodium chloride are added and the batch is thoroughly mixed. This formulation is prepared fresh daily. The control animals receive a placebo. The placebo is the same formulation without compound of formula I.
24 hours after the last administration, the tumour volume is measured and the ratio [%] of the tumour volume T/C is determined in the treated animals (T) and the control animals treated with placebo (C).

| Structure (SMILES) | pIC50 [1] | pIC50 [2] | ratio T/C of tumour volume ([3]; intraperitoneal, 25 mg) | ratio T/C of tumour volume ([3]; intraperitoneal, 50 mg) | ratio T/C of tumour volume ([3]; peroral, 25 mg) | ratio T/C of tumour volume ([3]; peroral, 50 mg) |
| --- | --- | --- | --- | --- | --- | --- |
| FC(F)(F)c1cccc(Nc2nccc(-c3cccnc3)n2)c1 [compound B, N-(3-trifluoromethylphenyl)-4-(3-pyridyl)-2-pyrimidinamine] | 5.13 | 5.60 | 54% | 46% | 68% | 53% |
| Clc1cccc(Nc2nccc(-c3cccnc3)n2)c1 [compound C, N-(3-chlorophenyl)-4-(3-pyridyl)-2-pyrimidinamine] | 5.28 | 5.20 | – | – | – | – |
| Nc1cccc(Nc2nccc(-c3cccnc3)n2)c1 [compound D, N-(3-aminophenyl)-4-(3-pyridyl)-2-pyrimidinamine] | 5.14 | 4.55 | – | – | – | – |

Further compounds by rising pIC50 [2], results first:

| pIC50 [1] | pIC50 [2] | Structure (SMILES) | ratio T/C of tumour volume ([3]; intraperitoneal, 25 mg) | ratio T/C of tumour volume ([3]; intraperitoneal, 50 mg) | ratio T/C of tumour volume ([3]; peroral, 25 mg) | ratio T/C of tumour volume ([3]; peroral, 50 mg) |
| --- | --- | --- | --- | --- | --- | --- |
| – | 4.55 | NCCCNC(=O)c1cccc(Nc2nccc(-c3cccnc3)n2)c1 [compound F, N-(3-[3-aminopropylaminocarbonyl]phenyl)-4-(3-pyridyl)-2-pyrimidinamine] | – | – | – | – |
| – | 4.59 | COC(=O)c1cccc(Nc2nccc(-c3cccnc3)n2)c1 [compound E, N-(3-methoxycarbonylphenyl)-4-(3-pyridyl)-2-pyrimidinamine] | – | – | – | – |
| 5.60 | 5.06 | c1cncc(-c2ccnc(Nc3cccc(-n4ccnc4)c3)n2)c1 [compound A, N-(3-1H-imidazol-1-ylphenyl)-4-(3-pyridyl)-2-pyrimidinamine] | – | – | – | – |
